According to patent US10959993B2, “Combination of Bcl-2 inhibitor and MEK inhibitor for the treatment of cancer” (Genentech, Inc., priority 2015, dated 2021):

What was measured:
AML cell lines [1] = assay: Reverse phase protein array (RPPA) of sensitive v. resistant cell lines; type: cell-based; parameters: p16INK4a Mean. Res / p16INK4a Mean. Sens / p53 Mean. Res / p53 Mean. Sens / Bax Mean. Res / Bax Mean. Sens / Bim Mean. Res / Bim Mean. Sens / bRaf (T401) Mean. Res / bRaf (T401) Mean. Sens / Bcl-2 Mean. Res / Bcl-2 Mean. Sens: unit not given here
Method: (§1) Representative proteins that are differentially expressed between combination-sensitive and combination-resistant cells were shown. (FIG. 3E) The Bcl-2:BIM complex was measured by the MSD ELISA assay in AML cell lines, untreated, treated with venetoclax alone, treated with cobimetinib alone, or treated with cobimetinib/venetoclax at 1×IC50 values for 4 hrs.
(§2) Ongoing analysis of pharmacodynamic markers include transcriptome assessment by RNA sequencing, functional proteomics by reverse phase protein array (RPPA), and quantification of Bcl-2:BIM and MCL-1:BIM complexes using the electrochemiluminescent ELISA assay (Meso Scale Discovery, MSD-ELISA). RPPA is a high-throughput technology that performs protein assays on thousands of samples simultaneously. This protein array platform measures levels of protein expression, as well as protein modifications such as phosphorylation.

Bcl-2:BIM complex = biological target: T1, Bcl-2:BIM complex (Homo sapiens, UniProt P10415); assay: MSD ELISA of Bcl-2:BIM complex; type: cell-based; details: 1×IC50, 4 hrs, preliminary MSD data
T1 construct: endogenous in cells; host or cells: AML cell lines (OCI-AML3 is the only one named for this read-out)
Method: as §1, §2
Representative proteins that are differentially expressed in sensitive and resistant cell lines to the combination. (FIGS. 3A, 3B, 3C, and 3D). […] (FIG. 3E).

[2] = tested on: AML stem/progenitor cells from primary AML; assay: Mass cytometry (CyTOF) of intracellular signaling proteins; type: cell-based
Method: Mononuclear cells from primary AML were treated with cobimetinib at 1.0 μM for 2 hrs followed by 10 minutes plus or minus stimulation with G-CSF (100 ng/ml). The SPADE tree was generated using markers including CD7, CD117, CD123, CD64, CD34, CD26, CD45, TIM3, CD33, CD19, CD56, CD2, CD15, CD41, CD38, CD166, CD3, CD90, CD11b, CD135 and HLA-DR. FIG. 4A depicts representative markers from among those markers tested. The grey-scale color represents the expression levels of each indicated protein. (FIG. 4A) Bcl-2 family members at baseline in the gated stem/progenitor AML cell populations (AML4295468: CD34+CD38+CD123+CD33+; AML 4366894: CD34+CD38-CD123+CD33+). (FIG. 4B) The median intensity of each protein in the gated cell populations mentioned above. (FIG. 4C) The intracellular signaling protein activation in the gated populations mentioned above.
We next investigated signaling patterns and Bcl-2 family protein expression in AML stem/progenitor cells using a 34-antibody panel and time-of-flight mass cytometry (CyTOF). CyTOF is a variation of flow cytometry in which antibodies are labeled with heavy metal ion tags rather than fluorochromes. Readout is by time-of-flight mass spectrometry. This allows for the combination of many more antibody specificities in single samples, without significant spillover between channels. […] (FIG. 4A). […] To test the efficacy of both compounds in vivo, we injected NSG mice with genetically engineered OCI-AML3/Luc/GFP cells. […] (FIGS. 5A and 5B). To further explore the anti-leukemia efficacy of both compounds, we injected NSGS mice with genetically engineered […] cells.

OCI-AML3/Luc/GFP cells = assay: OCI-AML3/Luc/GFP AML model in NSG mice; type: in vivo; details: compared to controls, more prominently in cobimetinib single agent and co-treated mice
Method: (§3) OCI-AML3/Luc/GFP cells (1×10^6 per mouse) were injected intravenously into NSG mice. (FIG. 5A) The luciferase intensity was quantified by serial bioluminescence imaging from 8 representative mice from 4 groups at week 5 post injection. (FIG. 5B) Overall survival rate in each group was estimated by the Kaplan-Meier method. 1×10^6 MOLM13-luci-GFP cells were injected into NSGS mice. Leukemia engraftment was confirmed on day 3 using Bioluminescence imaging (BLI). Mice were orally dosed daily with cobimetinib (10 mg/kg) or venetoclax (100 mg/kg) or in combination for 14 days. Luciferase intensity was shown on day 17 (FIG. 5C). Human CD45 engraftment in BM and spleen was determined by CyTOF. (FIG. 5D). The viable cell count was measured using Vi-Cell. (FIG. 5E). * *P: 0.01, ***P: 0.001.
(§4) We next investigated signaling patterns and Bcl-2 family protein expression in AML stem/progenitor cells using a 34-antibody panel and time-of-flight mass cytometry (CyTOF). CyTOF is a variation of flow cytometry in which antibodies are labeled with heavy metal ion tags rather than fluorochromes. Readout is by time-of-flight mass spectrometry. This allows for the combination of many more antibody specificities in single samples, without significant spillover between channels. […]

AML cell lines [3] = assay: CellTiter-Glo in vitro cytotoxicity / growth inhibition, 72 hrs; type: cell-based; details: MOLM14, OCI-AML3, NB4 and THP1
Method: (FIG. 1A) The AML cell lines were treated with cobimetinib or venetoclax at 0.001, 0.01, 0.1 and 1.0 μM for 72 hrs. Calcusyn software was used to calculate the IC50 values and combination index (CI) based on the luminescent intensity that correlated with number of viable cells determined by the CellTiter-Glo assay.
The activity of 4-(4-{[2-(4-chlorophenyl)-4,4-dimethylcyclohex-1-en-1-yl]methyl}piperazin-1-yl)-N-({3-nitro-4-[(tetrahydro-2H-pyran-4-ylmethyl)amino]phenyl}sulfonyl)-2-(1H-pyrrolo[2,3-b]pyridin-5-yloxy)benzamide (ABT-199, or venetoclax) and [3,4-Difluoro-2-(2-fluoro-4-iodoanilino)phenyl]{3-hydroxy-3-[(2S)-piperidin-2-yl]azetidin-1-yl}methanone (cobimetinib) was examined in a panel of myeloid leukemia cell lines with diverse genetic alterations.

primary AML blasts = assay: Long-term culture of primary AML blasts: apoptosis and growth inhibition by flow cytometry; type: cell-based; details: AML 4366894
Method: (FIG. 2A) Primary AML peripheral blood mononuclear cells were cultured in serum-Free Expansion Medium (SFEM) supplemented with BIT 9500 Serum Substitute and cytokines including stem cell factor (100 ng/ml), Flt3 ligand (50 ng/ml), IL-3 (20 ng/ml) and G-CSF (20 ng/ml) as well as SRI (1 μM). After culture for 5 days, cells were stained with CD45-PE, Annexin-V-APC and DAPI−. The apoptotic leukemia blasts (CD45dimAnnexin-V+) were determined by flow cytometry. Results were expressed as percentage of specific apoptosis calculated by the formula: 100×(% apoptosis of treated cells−% apoptosis of control cells)/(100−% apoptosis of control cells), or % growth inhibition of control using the viable cell counts determined by Annexin-/DAPI. […] MNCs isolated from patients with AML (100,000) or healthy donors (50,000) were plated in methylcellulose medium (1 mL/well; Cat. 04435; [sequence] Technologies Inc., Vancouver, BC, Canada) in triplicate per condition. Colonies were scored after 2 weeks of culture.

MOLM13-luci-GFP cells = assay: MOLM13-luci-GFP AML model in NSGS mice; type: in vivo; details: cobimetinib 10 mg/kg, venetoclax 100 mg/kg orally daily for 14 days, compared to controls, more prominently in venetoclax and co-treated mice
Method: as §3, §4

[4] = cell lines resistant to cobimetinib
[5] = cell lines sensitive to cobimetinib
[6] = cell lines resistant to venetoclax
[7] = cell lines sensitive to venetoclax

T1 sequence (P10415 whole entry, one chain of several): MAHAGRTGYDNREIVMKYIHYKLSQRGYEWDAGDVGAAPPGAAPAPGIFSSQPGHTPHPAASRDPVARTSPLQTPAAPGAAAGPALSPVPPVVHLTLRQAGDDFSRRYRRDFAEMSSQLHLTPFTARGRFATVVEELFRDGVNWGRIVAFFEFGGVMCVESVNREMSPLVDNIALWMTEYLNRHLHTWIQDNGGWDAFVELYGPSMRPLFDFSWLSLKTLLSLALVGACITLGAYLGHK

O=C(c1ccc(F)c(F)c1Nc1ccc(I)cc1F)N1CC(O)([C@@H]2CCCCN2)C1 [cobimetinib, [3,4-difluoro-2-(2-fluoro-4-iodoanilino)phenyl]{3-hydroxy-3-[(2S)-piperidin-2-yl]azetidin-1-yl}methanone]
Bax Mean. Res (AML cell lines [1]; [4]): 1.010
Bim Mean. Res (AML cell lines [1]; [4]): 0.893
ERK 1/2 (T202/Y204) Mean. Res (AML cell lines [1]; [4]): 1.073
FLT3 (Y589/591) Mean. Res (AML cell lines [1]; [4]): 0.948
PTEN (S380) Mean. Res (AML cell lines [1]; [4]): 1.049
PTEN Mean. Res (AML cell lines [1]; [4]): 1.013
RSK3 (T356/S360) Mean. Res (AML cell lines [1]; [4]): 0.859
S6 (S235/236) Mean. Res (AML cell lines [1]; [4]): 0.748
p16INK4a Mean. Res (AML cell lines [1]; [4]): 2.220
p38MAP (T180/Y182) Mean. Res (AML cell lines [1]; [4]): 0.983
p53 Mean. Res (AML cell lines [1]; [4]): 0.939
Bax Mean. Sens (AML cell lines [1]; [5]): 1.307
Bim Mean. Sens (AML cell lines [1]; [5]): 1.175
ERK 1/2 (T202/Y204) Mean. Sens (AML cell lines [1]; [5]): 1.988
FLT3 (Y589/591) Mean. Sens (AML cell lines [1]; [5]): 1.256
PTEN (S380) Mean. Sens (AML cell lines [1]; [5]): 1.335
PTEN Mean. Sens (AML cell lines [1]; [5]): 1.361
RSK3 (T356/S360) Mean. Sens (AML cell lines [1]; [5]): 1.495
S6 (S235/236) Mean. Sens (AML cell lines [1]; [5]): 1.174
p16INK4a Mean. Sens (AML cell lines [1]; [5]): 1.184
p38MAP (T180/Y182) Mean. Sens (AML cell lines [1]; [5]): 1.275
p53 Mean. Sens (AML cell lines [1]; [5]): 1.373
Bcl-2:BIM complex (Bcl-2:BIM complex; AML cell lines): but not cobimetinib disrupted
Bcl-2:BIM complex (Bcl-2:BIM complex; OCI-AML3 cells): accumulated
G-CSF-evoked p-STAT3/5 ([2]; AML 4295468, 1.0 μM for 2 hrs): only slightly reduced
SCF-induced p-AKT ([2]; AML 4295468, 1.0 μM for 2 hrs): only slightly reduced
basal and G-CSF- or SCF-stimulated p-ERK ([2]; AML 4295468, 1.0 μM for 2 hrs): efficiently down-regulated
G-CSF-induced p-STAT3/5 ([2]; AML 4366894, 1.0 μM for 2 hrs): not significantly changed
p-ERK ([2]; AML 4366894, 1.0 μM for 2 hrs): also reduced
phosphorylation of STATS pathway ([2]; primary AML, 1.0 μM for 2 hrs): increased phosphorylation
leukemia burden by bioluminescent imaging (BLI) (OCI-AML3/Luc/GFP cells): significantly reduced leukemia burden

CC1(C)CCC(CN2CCN(c3ccc(C(=O)NS(=O)(=O)c4ccc(NCC5CCOCC5)c([N+](=O)[O-])c4)c(Oc4cnc5[nH]ccc5c4)c3)CC2)=C(c2ccc(Cl)cc2)C1 [venetoclax, 4-(4-{[2-(4-chlorophenyl)-4,4-dimethylcyclohex-1-en-1-yl]methyl}piperazin-1-yl)-N-({3-nitro-4-[(tetrahydro-2H-pyran-4-ylmethyl)amino]phenyl}sulfonyl)-2-(1H-pyrrolo[2,3-b]pyridin-5-yloxy)benzamide]
sensitivity of cell lines to single agent (AML cell lines [3]): resistant
sensitivity of primary AML sample (primary AML blasts): resistant
Bax Mean. Res (AML cell lines [1]; [6]): 0.958
Bcl-2 Mean. Res (AML cell lines [1]; [6]): 0.817
Bim Mean. Res (AML cell lines [1]; [6]): 1.143
PTEN (S380) Mean. Res (AML cell lines [1]; [6]): 0.839
PTEN Mean. Res (AML cell lines [1]; [6]): 0.704
S6 (S240/244) Mean. Res (AML cell lines [1]; [6]): 1.918
bRaf (T401) Mean. Res (AML cell lines [1]; [6]): 1.263
p16INK4a Mean. Res (AML cell lines [1]; [6]): 1.989
Bax Mean. Sens (AML cell lines [1]; [7]): 1.227
Bcl-2 Mean. Sens (AML cell lines [1]; [7]): 1.081
Bim Mean. Sens (AML cell lines [1]; [7]): 0.811
PTEN (S380) Mean. Sens (AML cell lines [1]; [7]): 1.369
PTEN Mean. Sens (AML cell lines [1]; [7]): 1.495
S6 (S240/244) Mean. Sens (AML cell lines [1]; [7]): 1.571
bRaf (T401) Mean. Sens (AML cell lines [1]; [7]): 0.927
p16INK4a Mean. Sens (AML cell lines [1]; [7]): 1.593
Bcl-2:BIM complex (Bcl-2:BIM complex; AML cell lines): disrupted by venetoclax in most cell lines
leukemia burden by bioluminescent imaging (MOLM13-luci-GFP cells): significantly reduced leukemia burden
